Reference: patent publication US8957084B2, “7,8-cyclicmorphinan analogs” (Purdue Pharma L.P., priority 2012, dated 2015)

Columns and labels:
μ-opioid receptor [1] = target: T1, μ-opioid receptor (Homo sapiens (Human), UniProt P35372); assay: μ-opioid receptor [35S]GTPγS functional assay, HEK-293 cells; type: biochemical; details: for Emax: relative to DAMGO
Protocol: (§1) [^35S]GTPγS functional assays were conducted using freshly thawed μ-receptor membranes prepared in-house from a cell line expressing recombinant μ opioid receptor in a HEK-293, CHO or U-2 OS cell background, or purchased from a commercial source (Perkin Elmer, Shelton, Conn.; or DiscovRx, Fremont, Calif.). Assay reactions were prepared by sequentially adding the following reagents to binding buffer (100 mM NaCl, 10 mM MgCl2, 20 mM HEPES, pH 7.4) on ice (final concentrations indicated): membrane protein (0.026 mg/mL), saponin ([…]), GDP ([…]) and [^35S]GTPγS (0.20 nM; Perkin Elmer, Shelton, Conn.). The prepared membrane solution (190 μl/well) was transferred to 96-shallow well polypropylene plates containing 10 μl of 20× concentrated stock solutions of the agonist [D-Ala^2, N-methyl-Phe^4 Gly-ol^5]-enkephalin (DAMGO) prepared in dimethyl sulfoxide (DMSO). Plates were incubated for 30 min at about 25° C. with shaking. Reactions were terminated by rapid filtration onto 96-well Unifilter GF/B filter plates (Perkin Elmer, Shelton, Conn.) using a 96-well tissue harvester (Perkin Elmer, Shelton, Conn.) followed by three filtration washes with 200 μl of ice-cold wash buffer (10 mM NaH2PO4, 10 mM Na2HPO4, pH 7.4). Filter plates were subsequently dried at 50° C. for 2-3 hours. BetaScint scintillation cocktail (Perkin Elmer, Shelton, Conn.) was added (50 μl/well) and plates were counted using a Packard Top-Count for 1 min/well. Data were analyzed using the sigmoidal dose-response curve fitting functions in GraphPad PRISM v. 3.0, or an in-house function for non-linear, sigmoidal dose-response curve-fitting.
(§2) μ GTP EC50 is the concentration of a compound providing 50% of the maximal response for the compound at a μ-opioid receptor.
(§3) μ GTP Emax (%) is the maximal effect elicited by a compound relative to the effect elicited by DAMGO, a standard μ agonist. Generally, the μ GTP Emax (%) value measures the efficacy of a compound to treat or prevent pain or other Conditions.
(§4) In TABLE 2, activity response of certain Compounds of the Invention to the μ- and κ-opioid receptors was determined as described above for functional assays using HEK-293 cells.

κ opioid receptor [2] = target: T2, κ opioid receptor (Homo sapiens (Human), UniProt P41145); assay: κ-opioid receptor [35S]GTPγS functional assay, HEK-293 cells; type: biochemical; details: for Emax: relative to U69,593
Protocol: (§5) Membranes from HEK-293 cells, CHO or U-2 OS cells expressing the recombinant human kappa opioid receptor (κ) were prepared by lysing cells in ice cold hypotonic buffer (2.5 mM MgCl2, 50 mM HEPES, pH 7.4) (10 mL/10 cm dish) followed by homogenization with a tissue grinder/Teflon pestle. Membranes were collected by centrifugation at 30,000×g for 15 min at 4° C. and pellets were resuspended in hypotonic buffer to a final concentration of 1-3 mg/mL. Protein concentrations were determined using the BioRad protein assay reagent with bovine serum albumen as standard. Aliquots of κ receptor membranes were stored at −80° C.
(§6) Functional [^35S]GTPγS binding assays were conducted as follows. κ opioid receptor membrane solution was prepared by sequentially adding final concentrations of 0.026 μg/μl κ membrane protein (in-house), 10 μg/mL saponin, 3 μM GDP and 0.20 nM [^35S]GTPγS to binding buffer (100 mM NaCl, 10 mM MgCl2, 20 mM HEPES, pH 7.4) on ice. The prepared membrane solution (190 μl/well) was transferred to 96-shallow well polypropylene plates containing 10 μl of 20× concentrated stock solutions of agonist prepared in DMSO. Plates were incubated for 30 min at a temperature of about 25° C. with shaking. Reactions were terminated by rapid filtration onto 96-well Unifilter GF/B filter plates (Perkin Elmer, Shelton, Conn.) using a 96-well tissue harvester (Packard) and followed by three filtration washes with 200 μl ice-cold binding buffer (10 mM NaH2PO4, 10 mM Na2HPO4, pH 7.4). Filter plates were subsequently dried at 50° C. for 2-3 hours. Fifty μl/well scintillation cocktail (Perkin Elmer, Shelton, Conn.) was added and plates were counted in a Packard Top-Count for 1 min/well.
(§7) κ GTP EC50 is the concentration of a compound providing 50% of the maximal response for the compound at a κ receptor.
(§8) κ GTP Emax (%) is the maximal effect elicited by a compound relative to the effect elicited by U69,593.
as §4

μ-opioid receptor [3] = target: T1, μ-opioid receptor; assay: μ-opioid receptor radioligand dose-displacement binding assay ([3H]-diprenorphine); details: [3H]-diprenorphine displacement
Protocol: Radioligand dose-displacement binding assays for μ-opioid receptors used 0.3 nM [^3H]-diprenorphine (Perkin Elmer, Shelton, Conn.), with […] membrane protein/well in a final volume of 500 μl binding buffer (10 mM MgCl2, 1 mM EDTA, 5% DMSO, 50 mM HEPES, pH 7.4). Reactions were carried out in the absence or presence of increasing concentrations of unlabeled naloxone. All reactions were conducted in 96-deep well polypropylene plates for 2 hours at room temperature. Binding reactions were terminated by rapid filtration onto 96-well Unifilter GF/C filter plates (Perkin Elmer, Shelton, Conn.), presoaked in 0.5% polyethylenimine using a 96-well tissue harvester (Perkin Elmer, Shelton, Conn.) followed by performing three filtration washes with 500 μl of ice-cold binding buffer. Filter plates were subsequently dried at 50° C. for 2-3 hours. BetaScint scintillation cocktail (Perkin Elmer, Shelton, Conn.) was added (50 μl/well), and plates were counted using a Packard Top-Count for 1 min/well. The data were analyzed using the one-site competition curve fitting functions in GraphPad PRISM™ v. 3.0 or higher (San Diego, Calif.), or an in-house function for one-site competition curve-fitting.
(§9) In TABLE 1, binding affinity of certain Compounds of the Invention to the μ- and κ-opioid receptors was determined as described above.

[4] = target: recombinant human kappa opioid receptor (κ) (Homo sapiens (Human), UniProt P41145); assay: κ-opioid receptor radioligand dose-displacement binding assay ([3H]-U69,593); details: [3H]-U69,593 displacement
Protocol: as §5
Radioligand dose displacement assays used 0.4 nM [^3H]-U69,593 (GE Healthcare, Piscataway, N.J.; 40 Ci/mmole) with 15 μg membrane protein (recombinant κ opioid receptor expressed in HEK 293 cells; in-house prep) in a final volume of 200 μl binding buffer (5% DMSO, 50 mM Trizma base, pH 7.4). Non-specific binding was determined in the presence of 10 μM unlabeled naloxone or U69,593. All reactions were performed in 96-well polypropylene plates for 1 hour at a temperature of about 25° C. Binding reactions were terminated by rapid filtration onto 96-well Unifilter GF/C filter plates (Perkin Elmer, Shelton, Conn.) presoaked in 0.5% polyethylenimine (Sigma). Harvesting was performed using a 96-well tissue harvester (Perkin Elmer, Shelton, Conn.) followed by five filtration washes with 200 μl ice-cold binding buffer. Filter plates were subsequently dried at 50° C. for 1-2 hours. Fifty μl/well scintillation cocktail (Perkin Elmer, Shelton, Conn.) was added and plates were counted in a Packard Top-Count for 1 min/well.
as §9

κ opioid receptor [5] = target: T2, κ opioid receptor; assay: κ-opioid receptor [35S]GTPγS functional assay, U-2 OS cells; type: biochemical; details: for Emax: GTPγS, U-2 OS cells, relative to U69,593
Protocol: as §5, §6, §7, §8
(§10) In TABLE 3, activity response of certain Compounds of the Invention to the μ- and κ-opioid receptors was determined as described above for functional assays using U-2 OS cells.

μ-opioid receptor [6] = target: T1, μ-opioid receptor; assay: μ-opioid receptor [35S]GTPγS functional assay, U-2 OS cells; type: biochemical; details: for Emax: GTPγS, U-2 OS cells, relative to DAMGO
Protocol: as §1, §2, §3, §10

Q: Which EC50 (μ-opioid receptor [1]) does the source give for `COc1ccc2c(c1)[C@]13CCN(CC4CC4)[C@H](C2)[C@@H]1C1CC1C(=O)C3` (stereo partly drawn) [Compound 1, (1bR,2R,7bS)-12-(cyclopropylmethyl)-6-methoxy-1,1b,2,3,8,9a-hexahydro-2,7b-(epiminoethano)cyclopropa[a]phenanthren-9(1aH)-one] here?
A: 53.6 ± 8.94 nM

Q: And the Emax (μ-opioid receptor [1]; GTPγS, HEK-293 cells)?
A: 63.6 ± 3.47%

Q: What about the EC50 (κ opioid receptor [2]) of the same compound?
A: 136 ± 25.4 nM

Q: And the Emax (κ opioid receptor [2]; GTPγS, HEK-293 cells)?
A: 81 ± 2.27%

Q: And the Ki (μ-opioid receptor [3])?
A: 112 ± 26.9 nM

Q: What about the Ki [4] of the same compound?
A: 8.87 ± 2.73 nM

Q: For `COc1ccc2c(c1)[C@]13CCN(CC4CC4)[C@H](C2)[C@@H]1C1CC1C(O)C3` (stereo partly drawn) [Compound 2, (1bR,2R,7bS)-12-(cyclopropylmethyl)-6-methoxy-1,1a,1b,2,3,8,9,9a-octahydro-2,7b-(epiminoethano)cyclopropa[a]phenanthren-9-ol], which EC50 (μ-opioid receptor [1]) is on record?
A: 414 ± 73 nM

Q: And the Emax (μ-opioid receptor [1]; GTPγS, HEK-293 cells)?
A: 54.3 ± 4.67%

Q: And the EC50 (κ opioid receptor [2])?
A: 1120 ± 230 nM

Q: What about the Emax (κ opioid receptor [2]; GTPγS, HEK-293 cells) of the same compound?
A: 76.7 ± 3.18%

Q: What about the Ki [4] of the same compound?
A: 23.3 ± 6.06 nM

Q: For `C=CCOC1C[C@]23CCN(CC4CC4)[C@H](Cc4ccc(OC)cc42)C3C2CC12` (stereo partly drawn) [Compound 3, (2R,7bS)-9-(allyloxy)-12-(cyclopropylmethyl)-6-methoxy-1,1a,1b,2,3,8,9,9a-octahydro-2,7b-(epiminoethano)cyclopropa[a]phenanthrene], which EC50 (κ opioid receptor [5]) is on record?
A: 29.5 ± 4.5 nM

Q: What about the Emax (κ opioid receptor [5]) of the same compound?
A: 105 ± 4.67%

Q: What about the EC50 (μ-opioid receptor [1]) of the same compound?
A: 75.2 ± 9.24 nM

Q: And the Emax (μ-opioid receptor [1]; GTPγS, HEK-293 cells)?
A: 84.3 ± 5.81%

Q: And the EC50 (κ opioid receptor [2])?
A: 116 ± 27.4 nM

Q: What about the Emax (κ opioid receptor [2]; GTPγS, HEK-293 cells) of the same compound?
A: 66.7 ± 7.88%

Q: And the Ki (μ-opioid receptor [3])?
A: 30 ± 2.76 nM

Q: What about the Ki [4] of the same compound?
A: 3.04 ± 0.6 nM

Q: And the EC50 (μ-opioid receptor [6])?
A: 90.7 ± 17 nM

Q: And the Emax (μ-opioid receptor [6])?
A: 52.7 ± 7.54%

Q: With `C=C1C[C@@]23CCN(CC4CC4)[C@H](Cc4ccc(OC)cc42)C3C2CC12` (stereo partly drawn) [Compound 4, (2R,7bS)-12-(cyclopropylmethyl)-6-methoxy-9-methylene-1,1a,1b,2,3,8,9,9a-octahydro-2,7b-(epiminoethano)cyclopropa[a]phenanthrene] as the compound, how does the EC50 (κ opioid receptor [5]) read?
A: 8.95 ± 1.02 nM

Q: What about the Emax (κ opioid receptor [5]) of the same compound?
A: 102 ± 1.53%

Q: What about the EC50 (μ-opioid receptor [1]) of the same compound?
A: 42.2 ± 3.59 nM

Q: What about the Emax (μ-opioid receptor [1]; GTPγS, HEK-293 cells) of the same compound?
A: 113 ± 3.38%

Q: What about the EC50 (κ opioid receptor [2]) of the same compound?
A: 103 ± 36.9 nM

Q: And the Emax (κ opioid receptor [2]; GTPγS, HEK-293 cells)?
A: 106 ± 1.67%

Q: And the Ki (μ-opioid receptor [3])?
A: 142 ± 10.8 nM

Q: And the Ki [4]?
A: 2.19 ± 0.6 nM

Q: And the EC50 (μ-opioid receptor [6])?
A: 83.1 ± 7.77 nM

Q: And the Emax (μ-opioid receptor [6])?
A: 66.7 ± 4.81%

Q: For `COc1ccc2c(c1)[C@]13CCN(CC4CC4)[C@H](C2)[C@@H]1[C@H]1C2CCC(CC2)[C@H]1C(=O)C3` [Compound 5, (4aR,4bR,5R,10bS,12aR)-15-(cyclopropylmethyl)-9-methoxy-2,3,4,4a,5,6,11,12a-octahydro-1H-5,10b-(epiminoethano)-1,4-ethanochrysen-12(4bH)-one], which EC50 (μ-opioid receptor [1]; GTPγS, HEK-293 cells, read-out: μ EC50) is on record?
A: 216 ± 16.6 nM

Q: And the Emax (μ-opioid receptor [1]; GTPγS, HEK-293 cells)?
A: 33 ± 4.71%

Q: What about the EC50 (κ opioid receptor [2]; GTPγS, HEK-293 cells, read-out: κ EC50) of the same compound?
A: 1370 ± 419 nM

Q: What about the Emax (κ opioid receptor [2]; GTPγS, HEK-293 cells) of the same compound?
A: 19.3 ± 0.88%

Q: What about the Ki (μ-opioid receptor [3]) of the same compound?
A: 242 ± 46 nM

Q: What about the Ki [4] of the same compound?
A: 126 ± 21.9 nM
